Experimental findings from the supplement of paper PMC10307832 are described below.

The test system of one experiment is NCI-H1651. Kind of experiment: relative viability (nuclei count vs DMSO), 5 days (fraction); higher = more cells survive. The following applies: first compound 6.325 µM. An outline of the steps:
(§1)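 Lung cancer cell lines in 1536-well plates were dosed by pin tool the day after seeding, either with one drug alone or with a fixed anchor-drug dose plus five library-drug doses (not always all listed) in √10 steps. After 5 days, cells were fixed and their nuclei stained in one step (final 0.05% Triton X-100, 1% formaldehyde, 1 ug/ml Hoechst), then counted on 4× images. Relative viability is the nuclei count in treated wells divided by that in vehicle wells. Values are medians of duplicate plates.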
Compound `COCC1(CO)C(=O)C2CCN1CC2` (configuration not stated) [PRIMA-1MET] + C[C@]1(O)C[C@@H](c2nc(-c3ccc4ccc(-c5ccccc5)nc4c3)c3c(N)nccn32)C1 [Linsitinib] (partner 1 µM) returned a relative viability of 0.955.

Regarding `COCC1(CO)C(=O)C2CCN1CC2` (configuration not stated) [PRIMA-1MET] + Cc1cc(Nc2cc(N3CCN(C)CC3)nc(Sc3ccc(NC(=O)C4CC4)cc3)n2)n[nH]1 [Tozasertib] (partner 0.1 µM), the relative viability came to 0.712.

For `COCC1(CO)C(=O)C2CCN1CC2` (configuration not stated) [PRIMA-1MET] + Cc1nc(NC(=O)N2CCC[C@H]2C(N)=O)sc1-c1ccnc(C(C)(C)C(F)(F)F)c1 [Alpelisib] (partner 2 µM), the relative viability amounted to 0.962.

As to `COCC1(CO)C(=O)C2CCN1CC2` (configuration not stated) [PRIMA-1MET] + C[C@@H](Oc1cc(-c2cnn(C3CCNCC3)c2)cnc1N)c1c(Cl)ccc(F)c1Cl [Crizotinib] (partner 1 µM), the relative viability was determined as 0.955.

The experiment is the same for the next values; noted with them: first compound 20 µM.
As to `COCC1(CO)C(=O)C2CCN1CC2` (configuration not stated) [PRIMA-1MET] + O=C(CCCCCCC(=O)Nc1ccccc1)NO [Vorinostat] (partner 1 µM), the relative viability worked out at 0.564.

`COCC1(CO)C(=O)C2CCN1CC2` (configuration not stated) [PRIMA-1MET] + C[C@]1(O)C[C@@H](c2nc(-c3ccc4ccc(-c5ccccc5)nc4c3)c3c(N)nccn32)C1 [Linsitinib] (partner 1 µM) returned a relative viability of 0.839.

Compound `COCC1(CO)C(=O)C2CCN1CC2` (configuration not stated) [PRIMA-1MET] + Cc1cc(Nc2cc(N3CCN(C)CC3)nc(Sc3ccc(NC(=O)C4CC4)cc3)n2)n[nH]1 [Tozasertib] (partner 0.1 µM) showed a relative viability of 0.649.

`COCC1(CO)C(=O)C2CCN1CC2` (configuration not stated) [PRIMA-1MET] + Cc1nc(NC(=O)N2CCC[C@H]2C(N)=O)sc1-c1ccnc(C(C)(C)C(F)(F)F)c1 [Alpelisib] (partner 2 µM) showed a relative viability of 0.837.

On to `COCC1(CO)C(=O)C2CCN1CC2` (configuration not stated) [PRIMA-1MET] + C[C@@H](Oc1cc(-c2cnn(C3CCNCC3)c2)cnc1N)c1c(Cl)ccc(F)c1Cl [Crizotinib] (partner 1 µM), for which the relative viability is 0.888.

In a further experiment the test system is NCI-H2342. The description is as above. The following applies: first compound 0.2 µM. An outline of the steps:
as §1
As to `COCC1(CO)C(=O)C2CCN1CC2` (configuration not stated) [PRIMA-1MET] + O=C(CCCCCCC(=O)Nc1ccccc1)NO [Vorinostat] (partner 1 µM), the relative viability turned out to be 0.694.

Consider `COCC1(CO)C(=O)C2CCN1CC2` (configuration not stated) [PRIMA-1MET] + Cc1cc(Nc2cc(N3CCN(C)CC3)nc(Sc3ccc(NC(=O)C4CC4)cc3)n2)n[nH]1 [Tozasertib] (partner 0.1 µM), for which the relative viability was determined as 0.58.

The same experiment, now with this note: first compound 0.6325 µM.
`COCC1(CO)C(=O)C2CCN1CC2` (configuration not stated) [PRIMA-1MET] + O=C(CCCCCCC(=O)Nc1ccccc1)NO [Vorinostat] (partner 1 µM) had a relative viability of 0.913.

`COCC1(CO)C(=O)C2CCN1CC2` (configuration not stated) [PRIMA-1MET] + Cc1cc(Nc2cc(N3CCN(C)CC3)nc(Sc3ccc(NC(=O)C4CC4)cc3)n2)n[nH]1 [Tozasertib] (partner 0.1 µM) returned a relative viability of 0.684.

Still in this experiment, the particulars now being: first compound 2 µM.
Compound `COCC1(CO)C(=O)C2CCN1CC2` (configuration not stated) [PRIMA-1MET] + Cc1cc(Nc2cc(N3CCN(C)CC3)nc(Sc3ccc(NC(=O)C4CC4)cc3)n2)n[nH]1 [Tozasertib] (partner 0.1 µM) registered a relative viability of 0.408.

Still in this experiment, the particulars now being: first compound 6.325 µM.
On to `COCC1(CO)C(=O)C2CCN1CC2` (configuration not stated) [PRIMA-1MET] + O=C(CCCCCCC(=O)Nc1ccccc1)NO [Vorinostat] (partner 1 µM), for which the relative viability was found to be 0.748.

In turn, `COCC1(CO)C(=O)C2CCN1CC2` (configuration not stated) [PRIMA-1MET] + Cc1cc(Nc2cc(N3CCN(C)CC3)nc(Sc3ccc(NC(=O)C4CC4)cc3)n2)n[nH]1 [Tozasertib] (partner 0.1 µM) gave a relative viability of 0.405.

The experiment is the same for the next values; noted with them: first compound 20 µM.
In turn, `COCC1(CO)C(=O)C2CCN1CC2` (configuration not stated) [PRIMA-1MET] + O=C(CCCCCCC(=O)Nc1ccccc1)NO [Vorinostat] (partner 1 µM) showed a relative viability of 0.607.

As to `COCC1(CO)C(=O)C2CCN1CC2` (configuration not stated) [PRIMA-1MET] + Cc1cc(Nc2cc(N3CCN(C)CC3)nc(Sc3ccc(NC(=O)C4CC4)cc3)n2)n[nH]1 [Tozasertib] (partner 0.1 µM), the relative viability was determined as 0.349.

A further experiment deals with H3255. The description is as above. The following applies: first compound 0.2 µM. An outline of the steps:
as §1
`COCC1(CO)C(=O)C2CCN1CC2` (configuration not stated) [PRIMA-1MET] + O=C(CCCCCCC(=O)Nc1ccccc1)NO [Vorinostat] (partner 1 µM) displayed a relative viability of 0.745.

The compound `COCC1(CO)C(=O)C2CCN1CC2` (configuration not stated) [PRIMA-1MET] + C[C@]1(O)C[C@@H](c2nc(-c3ccc4ccc(-c5ccccc5)nc4c3)c3c(N)nccn32)C1 [Linsitinib] (partner 1 µM) had a relative viability of 1.13.

The compound `COCC1(CO)C(=O)C2CCN1CC2` (configuration not stated) [PRIMA-1MET] + Cc1cc(Nc2cc(N3CCN(C)CC3)nc(Sc3ccc(NC(=O)C4CC4)cc3)n2)n[nH]1 [Tozasertib] (partner 0.1 µM) had a relative viability of 0.807.

`COCC1(CO)C(=O)C2CCN1CC2` (configuration not stated) [PRIMA-1MET] + Cc1nc(NC(=O)N2CCC[C@H]2C(N)=O)sc1-c1ccnc(C(C)(C)C(F)(F)F)c1 [Alpelisib] (partner 2 µM) gave a relative viability of 0.845.

In the case of `COCC1(CO)C(=O)C2CCN1CC2` (configuration not stated) [PRIMA-1MET] + C[C@@H](Oc1cc(-c2cnn(C3CCNCC3)c2)cnc1N)c1c(Cl)ccc(F)c1Cl [Crizotinib] (partner 1 µM), the relative viability worked out at 0.898.

The same experiment, now with this note: first compound 0.6325 µM.
With `COCC1(CO)C(=O)C2CCN1CC2` (configuration not stated) [PRIMA-1MET] + O=C(CCCCCCC(=O)Nc1ccccc1)NO [Vorinostat] (partner 1 µM), the relative viability came out at 0.779.

The compound `COCC1(CO)C(=O)C2CCN1CC2` (configuration not stated) [PRIMA-1MET] + C[C@]1(O)C[C@@H](c2nc(-c3ccc4ccc(-c5ccccc5)nc4c3)c3c(N)nccn32)C1 [Linsitinib] (partner 1 µM) gave a relative viability of 1.01.

In turn, `COCC1(CO)C(=O)C2CCN1CC2` (configuration not stated) [PRIMA-1MET] + Cc1cc(Nc2cc(N3CCN(C)CC3)nc(Sc3ccc(NC(=O)C4CC4)cc3)n2)n[nH]1 [Tozasertib] (partner 0.1 µM) showed a relative viability of 0.765.

Take `COCC1(CO)C(=O)C2CCN1CC2` (configuration not stated) [PRIMA-1MET] + Cc1nc(NC(=O)N2CCC[C@H]2C(N)=O)sc1-c1ccnc(C(C)(C)C(F)(F)F)c1 [Alpelisib] (partner 2 µM): the relative viability stood at 0.547.

The compound `COCC1(CO)C(=O)C2CCN1CC2` (configuration not stated) [PRIMA-1MET] + C[C@@H](Oc1cc(-c2cnn(C3CCNCC3)c2)cnc1N)c1c(Cl)ccc(F)c1Cl [Crizotinib] (partner 1 µM) registered a relative viability of 0.682.

The same experiment, now with this note: first compound 2 µM.
Consider `COCC1(CO)C(=O)C2CCN1CC2` (configuration not stated) [PRIMA-1MET] + O=C(CCCCCCC(=O)Nc1ccccc1)NO [Vorinostat] (partner 1 µM), for which the relative viability was found to be 0.809.

Consider `COCC1(CO)C(=O)C2CCN1CC2` (configuration not stated) [PRIMA-1MET] + C[C@]1(O)C[C@@H](c2nc(-c3ccc4ccc(-c5ccccc5)nc4c3)c3c(N)nccn32)C1 [Linsitinib] (partner 1 µM), for which the relative viability worked out at 0.8.

On to `COCC1(CO)C(=O)C2CCN1CC2` (configuration not stated) [PRIMA-1MET] + Cc1cc(Nc2cc(N3CCN(C)CC3)nc(Sc3ccc(NC(=O)C4CC4)cc3)n2)n[nH]1 [Tozasertib] (partner 0.1 µM), for which the relative viability stood at 0.461.

For the compound `COCC1(CO)C(=O)C2CCN1CC2` (configuration not stated) [PRIMA-1MET] + Cc1nc(NC(=O)N2CCC[C@H]2C(N)=O)sc1-c1ccnc(C(C)(C)C(F)(F)F)c1 [Alpelisib] (partner 2 µM), the relative viability turned out to be 0.574.
